# From article PMC5845353, “The selective cathepsin K inhibitor MIV-711 attenuates joint pathology in experimental animal models of osteoarthritis” (Journal of Translational Medicine, 2018)
# How the values were obtained:
# plasma proteins = assay: Fraction bound to plasma proteins, human; assay type: in vitro ADME
# [1] = Plasma concentrations of MIV-711 in ACLT rabbits (LC-MS/MS); assay type: in vivo; conditions: rabbit plasma
# Description: Starting 1 week after sham operation or ACLT, animals were dosed daily for 7 weeks by oral gavage with either MIV-711 (synthesized by Medivir and given as a suspension in 1% Methocel A4C in water) or vehicle (1% Methocel A4C in water) at a dose volume of 4 mL/kg. The four treatment groups (n = 7 in each group) were: (1) sham + vehicle; (2) ACLT + vehicle; (3) ACLT + MIV-711, 30 µmol/kg (low dose) and (4) ACLT + MIV-711, 100 µmol/kg (high dose).
# Twelve blood samples of 1 mL each were collected from each animal for determination of MIV-711 concentrations in a staggered manner to cover as many time points as possible. The blood samples were collected on Day 1, Day 10 and during Week 4 and Week 7. The samples were collected in EDTA coated tubes and kept on ice. The plasma was separated by centrifugation (2000g for 3–5 min at 4 °C) and then frozen and kept at − 70 °C until analysis.
# (§1) To measure MIV-711 concentrations, 10–50 µL of plasma or synovial fluid was mixed with 30–150 µL of acetonitrile, samples were centrifuged (10 min, 20,000g, 7 °C) and 5 µL of the supernatant was injected onto the LC–MS/MS system. The lower limit of quantification (LLOQ) was 1 nmol/L.
# [2] = Synovial fluid concentrations of MIV-711 in dogs; assay type: in vivo; conditions: dog
# Description: Synovial fluid was collected from as many dogs as possible immediately before surgery and then again during necropsy from both operated and contralateral knees. The fluid was sampled directly without lavage using a syringe. The synovial fluid was transferred into tubes containing EDTA. The samples were spun in a centrifuge, and the supernatant was collected and stored at − 70 °C until analysis.
# as §1
# [3] = test system: dogs subjected to partial medial meniscectomy; assay: Dog partial medial meniscectomy study, tibial cartilage lesion area by imaging analysis of photographs; assay type: in vivo; conditions: 30 µmol/kg
# Description: Dogs subjected to partial medial meniscectomy received either 30 µmol/kg MIV-711 (synthesized by Medivir and given as a suspension in 1% Methocel A4C; n = 15) or vehicle (1% Methocel A4C; n = 15) by orogastric gavage once daily in the morning. […] Dosing started the day before surgery and lasted through Day 28, the day before necropsy. Each dog was fasted for at least 12 h before dosing and food were returned approximately 4 h following test article administration.
# All animals were humanely euthanized on Day 29 to collect specimens for pathology. Following sedation with acepromazine, euthanasia was performed via injection of a pentobarbital-based euthanasia solution (≥ 88 mg/kg pentobarbital). At study termination, the left (operated) knee was opened, disarticulated and the lesions on the medial tibia and femur measured, described and photographed. The observers were blinded to the treatment. Photographs were used (with or without India Ink lesion enhancement) to determine % area of lesions on each medial tibial plateau. Lesions were classified as more severe or less severe depending on the intensity of India ink staining or perception of depth and areas for each calculated. Gross cartilage lesions were measured (length × width) and described as superficial, moderate, or deep. Gross subjective cartilage degeneration scores were assigned for the medial and lateral tibial and femoral compartments as follows based on lesion measurements (see above): 0: normal, 1: superficial degeneration up to 10 mm^2, 2: superficial degeneration greater than 10 mm^2, 3: moderate depth degeneration up to 15 mm^2, 4: moderate depth degeneration greater than 15 mm^2. Subjective scores for the various regions were then used to generate an overall index of subjective cartilage degeneration for each region for each animal. Actual measurements of cartilage lesions were used to derive a calculated set of data points based on length × width × depth score (with depth score of 1 = superficial, 2 = medium, and 3 = deep, based on gross description). Percent of more or less severe tibial lesion area was determined from photographs taken at necropsy.
# [4] = test system: dogs subjected to partial medial meniscectomy; assay: Dog study, principal components analysis of exposure, biomarker, macro- and microscopic data; assay type: in vivo; conditions: 30 µmol/kg, p < 0.001
# Description: Biomarker data was evaluated by two-way ANOVA, followed by Bonferroni’s or Dunnett’s correction for multiple comparisons when appropriate, using GraphPad Prism, version 6 (San Diego, CA). Synovial MIV-711 exposure data was evaluated by Student’s paired t-test. Data from µCT in rabbits was evaluated by one-way ANOVA followed by Dunnett’s correction for multiple comparisons (GraphPad). Macroscopic parameters in dogs were compared using Student’s unpaired t-test. The exposure data, biomarker data and macro- and microscopic data from the dog study were also imported into R (R Foundation for Statistical Computing Version 2.15.0, Vienna, Austria). A principal components analysis was performed using procedure prcomp. Derived scores were subjected to t-tests in Microsoft Excel 2007. Data are expressed as mean ± SEM, n = number of animals. A p-value < 0.05 was considered statistically significant.
# cathepsin K from human = target: cathepsin K from human; design: method as in PMID 29743078; conditions: read-out: Ki against cathepsin K from human; cited from earlier work
# [5] = single oral administration 30 µmol/kg
# [6] = single oral administration 100 µmol/kg
compound,measurement,setting,value
C#C[C@@H]1CN(C(=O)[C@H](CC(C)C)NC(=O)c2ccc(-c3nc(N4CCN(C)CC4)sc3F)cc2)[C@@H]2C(=O)CO[C@H]12 [MIV-711],fraction bound to plasma proteins,plasma proteins,94%
same,AUC0–24 h,[1]; [5],0.78 µM·h
same,Cmax,[1]; [5],250 nM
same,AUC0–24 h,[1]; [6],7.0 µM·h
same,Cmax,[1]; [6],1800 nM
same,MIV-711 levels in synovial fluid,[2]; 24 h after first dose and 24 h after last dose of 30 µmol/kg,low but measurable
same,"MIV-711 levels in synovial fluid, injured left knee compared to right knee","[2]; at sacrifice, 24 h after last dose of 30 µmol/kg",fivefold higher
same,"Total lesion area, reduction vs vehicle (printed in Fig. 7)","[3]; dog, left tibia plateau",26%
same,proportion of tibial cartilage affected by lesions (lesioned area),"[3]; dog, left tibia plateau, vehicle 21.0% ± 2.6",15.5%
same,"area of severe lesions, lower than vehicle group","[3]; dog, p = 0.08",80%
same,dogs with severe tibial cartilage lesions,"[3]; dog, vehicle 6/15",3/15
same,area of severe tibial cartilage lesions,"[3]; three dogs with severe lesions, vehicle 10 ± 4%",2 ± 1%
same,"principal component Score 2 (mainly biomarker data), vehicle vs MIV-711-treated groups",[4],significantly different
same,Ki,cathepsin K from human,0.98 nM
